Laboratory results taken from patent US7449463B2, “Morpholinyl containing benzimidazoles as inhibitors of respiratory syncytial virus replication” (Tibotec Pharmaceuticals Ltd., priority 2003, dated 2008).

Experiments:
[1] = test system: Respiratory Syncytial Virus; experiment: microbe, parasite or virus in culture; assay type: cell-based; conditions: human respiratory syncytial virus
Summary of the method: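 HeLa cells infected with ~100 TCID50 RSV in Eagle's Basal Medium with 5% FCS, five-fold compound dilutions, 37° C, 5% CO2 for 7 days. Viability by MTT (A540 minus A690); EC50 for protection against cytopathic effect and CC50 from mock-infected wells, SI = CC50/EC50.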

[2] = pEC50 (−log of EC50 when expressed in molar units), protection against RSV cytopathology
[3] = 168 h, RSV-infected HeLa cells, MTT readout seven days after infection, −log of EC50 in molar units

EC50 [1, 2] [nM]	melting point [°C]	Structure (SMILES)	EC50 [1, 3] [nM]
3.98	206	Cc1cc(C)cc(N(CCCC(N)=O)Cc2ccc3nc(NCCCN4CCOCC4)n(Cc4cccc5c4ncn5C)c3c2)c1 [Compound 230, 4-{(3,5-Dimethyl-phenyl)-[3-(1-methyl-1H-benzoimidazol-4-ylmethyl)-2-(3-morpholin-4-yl-propylamino)-3H-benzoimidazol-5-ylmethyl]-amino}-butyramide]	–
–	148	Cc1cc(C)c2nc(NCCCN3CCOC(CC(N)=O)C3)n(Cc3nc(C)ccc3O)c2c1 (stereo not drawn) [Compound 191, 2-(4-{3-[1-(3-Hydroxy-6-methyl-pyridin-2-ylmethyl)-4,6-dimethyl-1H-benzoimidazol-2-ylamino]-propyl}-morpholin-2-yl)-acetamide]	158
–	159	Cc1ccc(O)c(Cn2c(NC3CCNC(CCN4CCOCC4)C3)nc3ccc(CCc4ccccc4)cc32)n1 (stereo not drawn) [Compound 165, 6-methyl-2-{2-[2-(2-morpholin-4-yl-ethyl)-piperidin-4-ylamino]-6-phenethyl-benzoimidazol-1-ylmethyl}-pyridin-3-ol]	126
–	192	Cc1cc(C)cc(NCc2ccc3nc(NCCCN4CC(C)OC(C)C4)n(Cc4nc(C)ccc4O)c3c2)c1 (stereo not drawn) [Compound 172, 2-{2-[3-(2,6-dimethyl-morpholin-4-yl)-propylamino]-6-[(3,5-dimethyl-phenylamino)-methyl]-benzoimidazol-1-ylmethyl}-6-methyl-pyridin-3-ol]	15.8
–	180	Cc1cc(C)cc(N(CCO)Cc2ccc3nc(NCCCN4CCOCC4)n(Cc4nc(C)ccc4O)c3c2)c1 [Compound 58, 2-[6-{[(3,5-dimethyl-phenyl)-(2-hydroxy-ethyl)-amino]-methyl}-2-(3-morpholin-4-yl-propylamino)-benzimidazol-1-ylmethyl]-6-methyl-pyridin-3-ol]	0.398
1.58	109	Cc1cc(C)cc(N(CCCC(N)=O)Cc2ccc3nc(NCCCN4CCOCC4)n(C4CCCc5nc(C)c(C)nc54)c3c2)c1 (stereo not drawn) [Compound 213, 4-{(3,5-Dimethyl-phenyl)-[3-(2,3-dimethyl-5,6,7,8-tetrahydro-quinoxalin-5-yl)-2-(3-morpholin-4-yl-propylamino)-3H-benzoimidazol-5-ylmethyl]-amino}-butyramide]	–
–	196	Cc1cc(C)cc(N(CCN)Cc2ccc3nc(NCCCN4CCOCC4)n(Cc4nc(C)ccc4O)c3c2)c1 [Compound 66, 2-[6-{[(2-amino-ethyl)-(3,5-dimethyl-phenyl)-amino]-methyl}-2-(3-morpholin-4-yl-propylamino)-benzoimidazol-1-ylmethyl]-6-methyl-pyridin-3-ol]	1.26
–	168	Cc1cccc(NC(=O)c2ccc3nc(NCCCN4CCOCC4)n(Cc4nc(C)ccc4O)c3c2)c1 [Compound 159]	20000
–	121	Cc1cc(C)cc(N(CCCC(=O)O)Cc2ccc3nc(NCCCN4CCOCC4)n(Cc4nc(C)ccc4O)c3c2)c1 [Compound 62, 4-{(3,5-dimethyl-phenyl)-[3-(3-hydroxy-6-methyl-pyridin-2-ylmethyl)-2-(3-morpholin-4-yl-propylamino)-3H-benzoimidazol-5-ylmethyl]-amino}-butyric acid]	0.398
2.51	132	COc1ccc(C)nc1Cn1c(NCCCN2CCOCC2)nc2ccc(CNc3cc(C)ccc3CCCO)cc21 [Compound 219, 3-(2-{[3-(3-Methoxy-6-methyl-pyridin-2-ylmethyl)-2-(3-morpholin-4-yl-propylamino)-3H-benzoimidazol-5-ylmethyl]-amino}-4-methyl-phenyl)-propan-1-ol]	–
–	162	Cc1ccc(O)c(Cn2c(NCCCN3CCOCC3)nc3ccc(Cc4c(C)cc(NCCO)cc4C)cc32)n1 [Compound 143, 2-[6-[4-(2-hydroxy-ethylamino)-2,6-dimethylbenzyl]-2-(3-morpholin-4-yl-propylamino)-benzoimidazol-1-ylmethyl]-6-methyl-pyridin-3-ol]	10
0.501	192	Cc1ccc(CCO)c(NCc2ccc3nc(NCCCN4CCOCC4)n(Cc4ncccc4O)c3c2)c1 [Compound 192, 2-[6-{[2-(2-Hydroxy-ethyl)-5-methyl-phenylamino]-methyl}-2-(3-morpholin-4-yl-propylamino)-benzoimidazol-1-ylmethyl]-pyridin-3-ol]	–
–	168	CCn1ncc(Cc2ccc3nc(NCCCN4CCOCC4)n(Cc4nc(C)ccc4O)c3c2)c1NCCO [Compound 152]	7.94
–	170	Cc1cccc(NC(=O)c2ccc3c(c2)nc(NCCCN2CCOCC2)n3Cc2nc(C)ccc2O)c1 [Compound 158]	> 100000
–	198	Cc1cc(C)cc(NCc2ccc3nc(NCC(O)CN4CCOCC4)n(Cc4nc(C)ccc4O)c3c2)c1 (stereo not drawn) [Compound 171, 2-[6-[(3,5-dimethyl-phenylamino)-methyl]-2-(2-hydroxy-3-morpholin-4-yl-propyl-amino)-benzoimidazol-1-ylmethyl]-6-methyl-pyridin-3-ol]	2.51
–	172	Cc1cc(C)cc(NC(=O)c2ccc3nc(NCCCN4CCOCC4)n(Cc4nc(C)ccc4O)c3c2)c1 [Compound 160]	> 10000
–	170	Cc1cc(C)cc(N(CCCC(N)=O)Cc2ccc3nc(NCCCN4CCOCC4)n(Cc4nc(C)ccc4O)c3c2)c1 [Compound 59, 2-[6-{[(3,5-dimethyl-phenyl)-(3-aminocarbonyl-propyl)-amino]-methyl}-2-(3-morpholin-4-yl-propylamino)-benzimidazol-1-ylmethyl]-6-methyl-pyridin-3-ol]	0.251
0.501	162	Cc1ccc(CCO)c(NCc2ccc3nc(NCCCN4CCOCC4)n(C4CCCc5nc(C)c(C)nc54)c3c2)c1 (stereo not drawn) [Compound 193, 2-(2-{[3-(2,3-Dimethyl-5,6,7,8-tetrahydroquinoxalin-5-yl)-2-(3-morpholin-4-yl-propylamino)-3H-benzoimidazol-5-ylmethyl]-amino}-4-methyl-phenyl)-ethanol]	–
50.1	141	Cc1ccc(CCCO)c(NCc2ccc3nc(NCCCN4CCOCC4)n(Cc4cccc(Br)n4)c3c2)c1 [Compound 267, 3-(2-{[3-(6-Bromo-pyridin-2-ylmethyl)-2-(3-morpholin-4-yl-propylamino)-3H-benzoimidazol-5-ylmethyl]-amino}-4-methyl-phenyl)-propan-1-ol]	–
5.01	140	Cc1cc(C)cc(N(CCO)Cc2ccc3nc(NCCCN4CCOCC4)n(Cc4nc(C)c(C)nc4C)c3c2)c1 [Compound 233, 2-{(3,5-Dimethyl-phenyl)-[2-(3-morpholin-4-yl-propylamino)-3-(3,5,6-trimethyl-pyrazin-2-ylmethyl)-3H-benzoimidazol-5-ylmethyl]-amino}-ethanol]	–
–	150	Cc1cc(C)cc(NCc2ccc3nc(NC4CCNC(CCN5CCOCC5)C4)n(Cc4nc(C)ccc4O)c3c2)c1 (stereo not drawn) [Compound 163, 2-{6-[(3,5-dimethyl-phenylamino)-methyl]-2-[2-(2-morpholin-4-yl-ethyl)-piperidin-4-ylamino]-benzoimidazol-1-ylmethyl}-6-methyl-pyridin-3-ol]	12.6
–	224	Cc1ccc(O)c(Cn2c(NC3CCNC(CCN4CCOCC4)C3)nc3ccc(C=Cc4ccccc4)cc32)n1 (stereo not drawn) [Compound 169, 6-methyl-2-{2-[2-(2-morpholin-4-yl-ethyl)-piperidin-4-ylamino]-6-styryl-benzoimidazol-1-ylmethyl}-pyridin-3-ol]	631

Structure (SMILES)	EC50 [1, 2] [nM]	melting point [°C]	EC50 [1, 3] [nM]
Cc1cc(C)c2nc(N(CC(C)N3CCOCC3)C3CCNCC3)n(Cc3nc(C)ccc3O)c2c1 (stereo not drawn) [Compound 161, 2-[4,6-dimethyl-2-(2-morpholin-4-ylpropyl-piperidin-4-ylamino)-benzoimidazol-1-ylmethyl]-6-methyl-pyridin-3-ol]	–	223	2.51
Cc1cc(C)c2nc(N(CCN3CCOCC3)C3CCNCC3)n(Cc3nc(C)ccc3O)c2c1 [Compound 170, 2-[4,6-dimethyl-2-(2-morpholin-4-ylethyl-piperidin-4-ylamino)-benzoimidazol-1-ylmethyl]-6-methyl-pyridin-3-ol]	–	237	794
